Assays:
Format in all cases: cell-based, human
[1] = test system: primary cells of esophageal squamous carcinoma; assay: Effects of concentrations of the added factors or small molecule compounds on proliferation (Example 7); settings: for proliferation promoting effect when added to No. 7 medium: 10 μM, 3 μM, 1 μM, 0.3 μM, 0.1 μM, control No. 7 medium; for concentration at which the cell proliferation effect is most significant: added to No. 7 medium lacking this factor
Protocol: According to the same process as in Example 1, endoscopic tissue Sample 65, Sample 66, Sample 67, Sample 68 and Sample 69 were isolated to obtain primary cells of esophageal squamous carcinoma, and the obtained primary cells of esophageal squamous carcinoma were cultured by using No. 7 medium of Example 1. The resultants were inoculated into 12-well plate at a living cell density of 1×10^4/cm^2 (45,000 cells per well), and then the plate was added with NIH-3T3 cells that have been irradiated by γ-ray (irradiation dose 35Gy) at a cell density of 2×10^4/cm^2, which were then fully mixed. After surface disinfection, the plate was placed in a 37° C., 5% CO2 incubator (Thermo Fisher) for culture. When the cells expended to cover 85% of the plate, the 12-well plate was taken out, rinsed with 200 μL 0.25% trypsin (Gibco) for 1 minute. The liquid was removed by sucking, and 500 μL 0.05% trypsin (Gibco) was added to each well again. The resultant was placed in a 37° C., 5% CO2 incubator to react for 10 minutes, and the digestion can be terminated until it can be observed under the microscope (EVOS […], Invitrogen) that the cells have been completely digested. After being centrifuged at 1500 rpm for 4 minutes, the supernatant was discarded, and 1 mL of basic culture medium was added for resuspension. The total number of cells was obtained by counting with a flow imaging counter (JIMBIO FIL, Jiangsu Jimbio Technology Co., Ltd.). The obtained cells were used for the following cultivation experiments. The digested cell suspension was diluted with the above Formulations 1-8 and No. 7 medium in Example 1 respectively, and were seeded into a 24-well plate with 20,000 cells and 500 μL volume per well. When using the medium of Formulation 1, five concentration gradients of N2 additives with the final concentration of 1:400, 1:200, 1:100, 1:50 and 1:25 were prepared, respectively, and the prepared N2 additives were added respectively to a 24-well plate inoculated with primary cells, with 500 μL per well; the medium of Formulation 1 was used as the control hole (BC). When using the medium of Formulation 2, five concentration gradients of non-essential amino acids with the final concentration of 400 μM, 200 μM, 100 μM, 50 μM, 25 μM were prepared, respectively, and the prepared non-essential amino acids were added respectively to a 24-well plate inoculated with primary cells, with 500 μL per well; the medium of Formulation 2 was used as the control hole (BC). When using the medium of Formulation 3, five concentration gradients of glutamine with the final concentration of 8 mM, 4 mM, 2 mM, 1 mM, 0.5 mM were prepared, respectively, and the prepared glutamine were added respectively to a 24-well plate inoculated with primary cells, with 500 μL per well; the medium of Formulation 3 was used as the control hole (BC). When using the medium of Formulation 4, five concentration gradients of insulin with the final concentration of 40 μg/mL, 20 μg/mL, 10 μg/mL, 5 μg/mL, 2.5 μg/mL were prepared, respectively, and the prepared insulin were added respectively to a 24-well plate inoculated with primary cells, with 500 μL per well; the medium of Formulation 4 was used as the control hole (BC). When using the medium of Formulation 5, five concentration gradients of insulin-like growth factor 1 (IGF1) with the final concentration of 40 ng/mL, 20 ng/mL, 10 ng/mL, 5 ng/mL, 2.5 ng/mL were prepared, respectively, and the prepared insulin-like growth factor 1 (IGF1) were added respectively to a 24-well plate inoculated with primary cells, with 500 μL per well; the medium of Formulation 5 was used as the control hole (BC). […]

[2] = test system: primary cells of esophageal squamous carcinoma; assay: Effect of a single factor added to the basic culture medium on proliferation (Example 2); settings: Sample 57, 7th day; BM = DMEM/F12 + 10 μM Y27632 + 100 mg/mL Primocin; factor at its No. 7 medium concentration
Protocol: To the basic culture mediums of Example 1 (DMEM/F12 medium+10 μM Y27632+100 mg/mL Primocin) were separatedly added 1:50 ratio of N2 additive, 20 μg/mL insulin, 7 μg/mL bovine pituitary extract, 2 mM glutamine, 400 μM non-essential amino acids, 0.4 μg/mL hydrocortisone, 5 ng/mL insulin-like growth factor 1, respectively, to prepare the culture mediums of this Example. According to the same process as in Example 1, endoscopic tissue Sample 57, Sample 58, Sample 59, Sample 60 and Sample 61 were isolated to obtain primary cells of esophageal squamous carcinoma, and the obtained primary cells of esophageal squamous carcinoma were cultured by using the respective culture mediums prepared in this Example, as well as BM medium and No. 7 medium (EM) of Example 1. The resultants were inoculated into 48-well plate at a living cell density of 1×10^4/cm^2 (10,000 cells per well), and then the plate was added with NIH-3T3 cells that have been irradiated by γ-ray (irradiation dose 35Gy) at a cell density of 2×10^4/cm^2, which were then fully mixed. After surface disinfection, the plate was placed in a 37° C., 5% CO2 incubator (Thermo Fisher) for culture. On the 7th day of culture, the 48-well plate was taken out, rinsed with 200 μL 0.25% trypsin (Gibco) for 1 minute. The liquid was removed by sucking, and 500 μL 0.05% trypsin (Gibco) was added to each well again. The resultant was placed in a 37° C., 5% CO2 incubator to react for 10 minutes, and the digestion can be terminated until it can be observed under the microscope (EVOS […], Invitrogen) that the cells have been completely digested. After being centrifuged at 1500 rpm for 4 minutes, the supernatant was discarded, and 1 mL of basic culture medium was added for resuspension. The total number of cells was obtained by counting with a flow imaging counter (JIMBIO FIL, Jiangsu Jimbio Technology Co., Ltd.). The effect of combination of two factors in the culture medium for primary cells of esophageal squamous carcinoma on the proliferation of primary cells of esophageal squamous carcinoma was evaluated. The results obtained from primary cells of esophageal squamous carcinoma isolated from endoscopic tissue Sample 57 are shown in FIG. 2.

[3] = test system: primary cells of esophageal squamous carcinoma; assay: Effect of adding other factors to EM medium on proliferation (Example 3); settings: Sample 62, 10 ng/ml factor added to No. 7 medium (EM), cultured for 7 days
Protocol: To No. 7 mediums (EM) of Example 1 were separately added 10 ng/ml fibroblast growth factor 2 (FGF2), 10 ng/ml fibroblast growth factor 10 (FGF10), 10 ng/ml fibroblast growth factor 7 (FGF7) or the combination of 10 ng/ml FGF2, 10 ng/ml FGF10 and 10 ng/ml FGF7, respectively, to prepare the mediums of this Example.
According to the same process as in Example 1, endoscopic tissue Sample 62 and Sample 63 were isolated to obtain primary cells of esophageal squamous carcinoma, and the obtained primary cells of esophageal squamous carcinoma were cultured by using the respective culture mediums prepared in this Example, as well as No. 7 medium (EM) of Example 1. The resultants were inoculated into 48-well plate with at a cell density of 1×10^4/cm^2 (10,000 cells per well), and then the plate was added with NIH-3T3 cells that have been irradiated by γ-ray (irradiation dose 35Gy) at a cell density of 2×10^4/cm^2, which were then fully mixed. After surface disinfection, the plate was placed in a 37° C., 5% CO2 incubator (Thermo Fisher) for culture. On the 7th day of culture, the 48-well plate was taken out, rinsed with 200 μL 0.25% trypsin (Gibco) for 1 minute. The liquid was removed by sucking, and 500 μL 0.05% trypsin (Gibco) was added to each well again. The resultant was placed in a 37° C., 5% CO2 incubator to react for 10 minutes, and the digestion can be terminated until it can be observed under the microscope (EVOS M500, Invitrogen) that the cells have been completely digested. After being centrifuged at 1500 rpm for 4 minutes, the supernatant was discarded, and 1 mL of No. 7 medium (EM) was added for resuspension. The total number of cells was obtained by counting with a flow imaging counter (JIMBIO FIL, Jiangsu Jimbio Technology Co., Ltd.). The effect of adding other factors to the culture medium for primary cells of esophageal squamous carcinoma of the invention on the proliferation of primary cells of esophageal squamous carcinoma was evaluated. […]

With `Cc1cccc(-c2nn(C(=S)Nc3ccccc3)cc2-c2ccnc3ccccc23)n1` [A83-01] the “proliferation promoting effect when added to No. 7 medium” value [1] was “do not show significant proliferation promoting effect”.

With `Cc1c[nH]c(-c2cnc(NCCNc3ccc(C#N)cn3)nc2-c2ccc(Cl)cc2Cl)n1` [CHIR99021] the “proliferation promoting effect when added to No. 7 medium” value [1] was “do not show significant proliferation promoting effect”.

`C[C@H](NC(=O)Cc1cc(F)cc(F)c1)C(=O)N[C@H](C(=O)OC(C)(C)C)c1ccccc1` [DAPT] was tested, and the “proliferation promoting effect when added to No. 7 medium” value [1] was “do not show significant proliferation promoting effect”.

For `CC(C)Oc1ccc(-c2cnc3c(-c4ccnc5ccccc45)cnn3c2)cc1` [DMH-1], the “proliferation promoting effect when added to No. 7 medium” value [1] was “do not show significant proliferation promoting effect”.

For `Cc1ccc2nc(NC(=O)CSc3nc4c(c(=O)n3-c3ccccc3)SCC4)sc2c1` [IWP2], the “proliferation promoting effect when added to No. 7 medium” value [1] was “do not show significant proliferation promoting effect”.

In the case of `c1ccc2c(-c3cnn4cc(-c5ccc(N6CCNCC6)cc5)cnc34)ccnc2c1` [LDN193189], the “proliferation promoting effect when added to No. 7 medium” value [1] is reported as “do not show significant proliferation promoting effect”.

In the case of `NC(=O)c1ccc(-c2nc(-c3ccc4c(c3)OCO4)c(-c3ccccn3)[nH]2)cc1` [SB431542], the “proliferation promoting effect when added to No. 7 medium” value [1] is reported as “do not show significant proliferation promoting effect”.

For `C[C@@H](N)[C@H]1CC[C@H](C(=O)Nc2ccncc2)CC1` [Y27632], the “concentration at which the cell proliferation effect is most significant” value ([1]; five concentration gradients) was 10 µM.

`NC(=O)CC[C@H](N)C(=O)O` [glutamine] was tested, and the “concentration at which the cell proliferation effect is most significant” value ([1]; tested 0.5-8 mM) was 2000 µM and the “cell proliferation efficiency when one factor is added to the basic culture medium” value (“cell proliferation efficiency” for short) [2] was “better than that of the basic culture medium, but was not as good as that of the No. 7 medium (EM)”.

In the case of `C[C@]12CCC(=O)C=C1CC[C@@H]1[C@@H]2[C@@H](O)C[C@@]2(C)[C@H]1CC[C@]2(O)C(=O)CO` [hydrocortisone], the “concentration at which the cell proliferation effect is most significant” value ([1]; five concentration gradients) is reported as 400 ng/mL and the “cell proliferation efficiency” value [2] is reported as “better than that of the basic culture medium, but was not as good as that of the No. 7 medium (EM)”.

FGF2: fibroblast growth factor 2 was tested, and the “effect on proliferation as compared with EM medium (ratio of cell numbers)” value (from here on “effect … (ratio of cell numbers)”) [3] was “no significant effect for promoting proliferation”.

insulin was tested, and the “concentration at which the cell proliferation effect is most significant” value ([1]; five concentration gradients) was 20 ng/mL and the “cell proliferation efficiency” value [2] was “better than that of the basic culture medium, but was not as good as that of the No. 7 medium (EM)”.

For “insulin-like growth factor 1: insulin-like growth factor 1 (IGF-1, Sino Biological)”, the “concentration at which the cell proliferation effect is most significant” value ([1]; five concentration gradients) was 5 ng/mL and the “cell proliferation efficiency” value [2] was “better than that of the basic culture medium, but was not as good as that of the No. 7 medium (EM)”.

B1: FGF7: fibroblast growth factor 7 (protein, UniProt P21781 32-194, looked up)
Fibroblast growth factor 7: CNDMTPEQMATNVNCSSPERHTRSYDYMEGGDIRVRRLFCRTQWYLRIDKRGKVKGTQEMKNNYNIMEIRTVAVGIVAIKGVESEFYLAMNKEGKLYAKKECNEDCNFKELILENHYNTYASAKWTHNGGEMFVALNQKGIPVRGKKTKKEQKTAHFLPMAIT
For B1, the “effect … (ratio of cell numbers)” value [3] was “inhibited”.

B2: FGF10: fibroblast growth factor 10 (protein, UniProt O15520 38-208, looked up)
Fibroblast growth factor 10: QALGQDMVSPEATNSSSSSFSSPSSAGRHVRSYNHLQGDVRWRKLFSFTKYFLKIEKNGKVSGTKKENCPYSILEITSVEIGVVAVKAINSNYYLAMNKKGKLYGSKEFNNDCKLKERIEENGYNTYASFNWQHNGRQMYVALNGKGAPRRGQKTRRKNTSAHFLPMVVHS
B2 was tested, and the “effect … (ratio of cell numbers)” value [3] was “no significant effect for promoting proliferation”.

Source: patent publication US20230091960A1, “CULTURE MEDIUM FOR PRIMARY CELLS OF ESOPHAGEAL SQUAMOUS CARCINOMA, AND CULTIVATION METHOD THEREFOR” (PRECEDO PHARMACEUTICALS CO., LTD, priority 2020, published 2023)
